In ChEMBL document CHEMBL1133700, “Chiral nonsteroidal affinity ligands for the androgen receptor. 1. Bicalutamide analogues bearing electrophilic groups in the B aromatic ring” (J Med Chem, 2000):
pKi: −log10 of the molar value.

The compounds below were run against T1, Androgen receptor (Rattus norvegicus, UniProt P15207) (assay: Binding Affinity towards Rat Androgen Receptor was determined using [3H]- mibolerone as radioligand.).
T1 sequence (P15207 whole entry): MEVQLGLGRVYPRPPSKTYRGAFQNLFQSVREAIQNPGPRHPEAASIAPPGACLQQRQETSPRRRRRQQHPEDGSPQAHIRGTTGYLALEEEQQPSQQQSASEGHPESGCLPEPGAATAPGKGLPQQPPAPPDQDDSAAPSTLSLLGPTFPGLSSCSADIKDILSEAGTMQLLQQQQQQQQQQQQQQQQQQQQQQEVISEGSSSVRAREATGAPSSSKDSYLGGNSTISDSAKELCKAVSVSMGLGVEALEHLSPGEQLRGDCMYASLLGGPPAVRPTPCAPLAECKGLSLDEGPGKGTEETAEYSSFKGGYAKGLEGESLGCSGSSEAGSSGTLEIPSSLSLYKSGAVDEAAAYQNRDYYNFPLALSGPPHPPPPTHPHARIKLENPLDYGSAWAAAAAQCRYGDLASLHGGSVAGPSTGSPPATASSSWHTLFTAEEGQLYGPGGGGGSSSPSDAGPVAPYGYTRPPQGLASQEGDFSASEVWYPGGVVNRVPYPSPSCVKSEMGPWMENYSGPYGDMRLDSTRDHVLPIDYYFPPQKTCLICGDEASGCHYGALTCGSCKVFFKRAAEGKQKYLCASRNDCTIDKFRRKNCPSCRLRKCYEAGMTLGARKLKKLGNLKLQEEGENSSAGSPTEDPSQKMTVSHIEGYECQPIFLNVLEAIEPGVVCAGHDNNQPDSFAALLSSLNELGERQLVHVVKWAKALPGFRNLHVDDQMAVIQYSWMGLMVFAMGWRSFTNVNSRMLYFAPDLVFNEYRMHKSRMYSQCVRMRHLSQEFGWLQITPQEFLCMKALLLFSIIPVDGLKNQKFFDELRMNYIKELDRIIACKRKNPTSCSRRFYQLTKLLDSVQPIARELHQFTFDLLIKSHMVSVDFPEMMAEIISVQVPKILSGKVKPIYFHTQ
For `C[C@](O)(CS(=O)(=O)c1cccc(NC(=O)CCl)c1)C(=O)Nc1ccc(C#N)c(C(F)(F)F)c1`, the pKi was 6.89. `C[C@](O)(CSc1cccc(NC(=O)CBr)c1)C(=O)Nc1ccc(C#N)c(C(F)(F)F)c1` gave a pKi of less than 6.00. `C[C@](O)(CSc1cccc(NC(=O)CCl)c1)C(=O)Nc1ccc(C#N)c(C(F)(F)F)c1` was tested, and the pKi was less than 6.00. With `C[C@](O)(CS(=O)(=O)c1ccc(N=C=S)cc1)C(=O)Nc1ccc(C#N)c(C(F)(F)F)c1` the pKi was 7.39.
